# Experimental data as given in US7056509B2 (Board of Regents The University of Texas System, priority 1999, dated 2006).
# Assays:
# [1] = test system: LS174T colon adenocarcinoma; experiment: LS174T tumor model in mice; type: in vivo, mouse; conditions: mice with established tumors
# A673 rhabdomyosarcoma [2] = experiment: In vivo tumor growth inhibition, newly-implanted A673; design: species or system mouse
# Description: (§1) Nu/nu mice were injected subcutaneously with either 1×10^7 NCI-H358 NSCLC cells or 5×10^6 A673 rhabdomyosarcoma cells on day 0. […] The tumors were then measured twice per wk for a period of approximately six wk for the NCI-H358 bearing mice and four wk for the A673 bearing mice. Tumor volume was calculated according to the formula: volume=L×W×H, where L=length, W=width, H=height.
# ABAE cells = experiment: Endothelial cell growth assay (VEGF-mediated growth, MTS); type: cell-based, bovine
# Description: Adult bovine aortic endothelial (ABAE) cells were plated into 96-well tissue culture plates at 1500 cells/well and grown in the presence of 0.5 nM human VEGF with the addition of the various sample and control antibodies. Control wells received media with or without VEGF.
# After 4 days of incubation, the cells were quantified by an MTS (3-(4,5-dimethylthiazol-2-yl)-5-(3-carboxylmethoxyphenyl)-2-(4-sulfophenyl)-2H-tetrazolium, inner salt) conversion assay, where MTS conversion to a formazan is proportional to cell number and can be followed by absorbance at 490 nm (Cell Titer 96 AQueous One Solution Cell Proliferation Assay, Promega, Madison, Wis.). The assay was performed according to the manufacturer's instructions.
# Cell growth was estimated by subtracting the MTS conversion in cultures to which VEGF was not added. Results were expressed as a percentage of the MTS conversion in control cultures to which only VEGF was added (Buttke et al., 1993).
# NCI-H358 NSCLC = experiment: In vivo tumor growth inhibition, newly-implanted NCI-H358; design: species or system mouse
# Description: as §1
# VEGF = molecular target: T1, VEGF (Homo sapiens, UniProt P15692); experiment: Competition ELISA (epitope groups, cross-blocking); type: binding; conditions: ELISA cross-blocking studies of 2C3 with A4.6.1
# T1 sequence (P15692 27-191 isoform P15692-4): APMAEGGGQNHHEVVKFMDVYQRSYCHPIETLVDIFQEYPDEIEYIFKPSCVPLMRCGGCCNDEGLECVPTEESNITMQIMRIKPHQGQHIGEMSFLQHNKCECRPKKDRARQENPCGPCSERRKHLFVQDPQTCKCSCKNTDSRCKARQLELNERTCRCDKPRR
# Description: Competition ELISA studies were performed by first labeling the antibodies with peroxidase according to the manufacturer's instructions (EZ-Link Activated Peroxidase, Pierce). […] Approximately 0.5–2.0 μg/ml of peroxidase labeled test antibody was incubated on the plate in the presence of either buffer alone, an irrelevant IgG, or the other anti-VEGF competing antibodies in a 10–100 fold excess.
# The assay was done in triplicate at least twice for each combination of labeled and competitor antibody. Two antibodies were considered to be in the same epitope group if they cross-blocked each other's binding by greater than 80%.
# HT1080 fibrosarcoma = experiment: In vivo tumor therapy, established HT1080 xenografts; design: species or system mouse; conditions: 100 μg i.p. every other day
# Description: (§2) Male nu/nu mice bearing subcutaneous NCI-H358 tumors or HT1080 fibrosarcoma 200–400 mm^3 in size were injected i.p. with test or control antibodies. The NCI-H358 bearing mice were treated with 100 μg of antibodies per injection three times a week during the first week and twice a week during the second and third week. The mice were then switched to 50 μg per injection every five days. The HT1080 bearing mice were treated with 100 μg of the indicated antibody or saline every other day throughout the duration of the study. In both studies, mice were sacrificed when their tumors reached 2500 mm^3 in size or earlier if tumors began to ulcerate.
# A673 rhabdomyosarcoma [3] = experiment: Treatment of mice with established A673 tumors; type: in vivo, mouse
# [4] = test system: NCI-H358 NSCLC and HT29 colon adenocarcinoma xenografts; experiment: In vivo localization to human tumor xenografts in tumor-bearing mice; design: species or system mouse; conditions: i.v. 24 hours prior to sacrifice; 3E7 and GV39M bound tumor vascular endothelium, 2C3 tumor stroma
# Description: Tumors were grown subcutaneously in immunocompromised mice (NCI-H358 NSCLC in nu/nu mice and HT29 colon adenocarcinoma in SCID mice) until the tumor volume was approximately 1 cm^3. 100 μg of unlabeled antibody for studies using SCID mice, or 100 μg of biotinylated antibody for studies using nude mice, was injected intravenously via a tail vein. Twenty four hours later, the mice were anesthetized, perfused with PBS, and tumor and organs including heart, lungs, liver, kidneys, intestines and spleen were collected and snap frozen in liquid nitrogen.
# The tumor and organs from each mouse were sectioned on a cryostat and stained for antibody immunohistochemically as above, with the exception that sections from the nude mice were developed using peroxidase labeled streptavidin-biotin complex (Dako, Carpinteria, Calif.) and the sections from the SCID mice were developed using two peroxidase-conjugated secondary antibodies, a goat anti-mouse IgG+IgM followed by a rabbit anti-goat IgG.
# 100 μg of GV39M and 3E7 or isotype-matched control IgG were injected into SCID mice bearing HT29 human colonic adenocarcinomas. Twenty-four hours later, the mice were sacrificed, exsanguinated and the tumors and tissues were removed.
# NCI-H358 NSCLC tumors = experiment: In vivo tumor therapy, established NCI-H358 xenografts; design: species or system mouse
# Description: as §2
# Doses were 50–100 μg every 3–5 days. […] In addition to measuring mean tumor volume (FIG. 4), photographs of the mice from each treatment group were also taken to show the differences in tumor size and appearance at the end of the study.
# VEGF and VEGF:Flk-1 = molecular target: T2, VEGF and VEGF:Flk-1 (Homo sapiens, UniProt P15692); experiment: Indirect and capture ELISA for reactivity with VEGF alone or VEGF associated with sFlk-1; type: binding; conditions: VEGF alone or VEGF associated with sFlk-1 (VEGF:Flk-1)
# T2 sequence (P15692 27-191 isoform P15692-4): T1 sequence (P15692 27-191 isoform P15692-4)
# Description: The Flk-1/SEAP protein was produced and purified as described by Tessler et al. (1994). Basically, the extracellular domain of Flk-1 (sFlk-1) was produced in Spodoptera frugiperda (Sf9) cells and purified by immunoaffinity techniques utilizing a monoclonal anti-Flk-1 antibody (1A8). sFlk-1 was then biotinylated and bound on avidin-coated plates.
# The reactivity was determined as described above for the initial screening.
# A capture ELISA was also developed. In the capture ELISA, microtiter plates were-coated overnight at 4° C. with 100 ng of the indicated antibody. […] Streptavidin conjugated to peroxidase (Kirkegaard & Perry Laboratories, Inc.), diluted 1:2000, was used as a second layer and developed.
# VEGFR2 (KDR/Flk-1) = experiment: ELISA of VEGF binding to VEGFR2-coated wells in presence of antibody; design: species or system mouse; conditions: 1000-fold molar excess of antibody over VEGF (1 nM)
# VEGFR2 in PAE/KDR cells = experiment: VEGF-induced phosphorylation of VEGFR2 (immunoprecipitation and western blot); type: cell-based, porcine; conditions: antibody at 100 nM, 15 min
# Description: PAE/KDR, PAE/FLT, and bEND.3 cells were grown to 80–90% confluency in 100 mm tissue dishes in media containing 5% serum. The cells were then serum starved for 24 hours in media containing 0.1% serum. After pretreatment with […] in PBS for 30 min, the cells were incubated with 5 nM (200 ng/ml) VEGF165, 5 nM (100 ng/ml) bFGF (R&D Systems, Minneapolis, Minn.), or A673 tumor conditioned media in the presence or absence of control or test antibodies for additional 15 min.
# The cells were then washed with ice-cold PBS containing 10 mM EDTA, 2 mM sodium fluoride, and 2 mM sodium orthovanadate and lysed in lysis buffer (50 mM Tris, 150 mM NaCl, 1% Nonidet P-40, 0.25% sodium deoxycholate, 0.1% CHAPS, 5 mM EDTA, 1.5 mM MgCl2, 2 mM sodium fluoride, 2 mM sodium orthovanadate, 10% glycerol and protease inhibitors (Complete Protease Inhibitor Cocktail tablets, Boehringer Mannheim)). The lysates were clarified by centrifugation and resulting supernatant used for immunoprecipitation.
# The reactions using the chicken anti-FLT-1 antibody were subsequently incubated with a bridging goat anti-chicken antibody (Kirkegaard and Perry Laboratories, Inc.) for 1 h at 4° C. […]
# [5] = test system: human NCI-H358 NSCLC tumors; experiment: Localization of 2C3-GUS in SCID mice bearing NCI-H358 tumors; type: in vivo, mouse
# [6] = Blood clearance of radioiodinated 2C3-GUS in mice; type: in vivo, mouse; conditions: after intravenous injection into mice, 125I-labelled
# Description: 2C3-GUS was radioiodinated with ^125I to a specific activity of 5×10^6 cpm/μg.
# [7] = patients having progressive disease before treatment; cited from earlier work
# VEGFR2 (KDR/Fc) = experiment: Coprecipitation assay, VEGF with VEGFR2/Fc in solution; type: binding; conditions: 40 ng VEGF, 200 ng receptor/Fc, F(ab′)2 of antibody
# Description: 200 ng of soluble forms of VEGFR1 (Flt-1/Fc) or VEGFR2 (KDR/Fc, R&D Systems, Minneapolis, Minn.) were added for a total volume of 50 μl and incubated for 2 hrs. The receptor/Fc constructs were precipitated using Protein A-sepharose beads and the resulting precipitate was washed 4 times with binding buffer.
# Reducing sample buffer was added to the pellet and supernatant of each reaction and both were analyzed by 12% SDS-PAGE and transferred to PVDF membranes. […] The soluble receptor/Fc constructs were also detected by using peroxidase-conjugated goat anti-human Fc (Kirkegaard & Perry Laboratories, Inc.)
# The receptor/Fc constructs were precipitated by incubation with Protein A sepharose beads. The precipitate was washed and resuspended in reducing sample buffer and separated by 12% SDS-PAGE and transferred to PVDF.
# [8] = 100 μg i.p. 2 times per wk from day 1, nu/nu mice
compound,measurement,setting,value
"2C3: monoclonal anti-VEGF antibody, IgG2a k, hybridoma ATCC PTA 1595; blocks VEGF binding to VEGFR2 but not VEGFR1",Growth of established tumors,[1],significantly slowed the growth
same,Final tumor volume,A673 rhabdomyosarcoma [2]; [8],approximately 150 mm^3
same,Effect on growth of A673 tumors,"A673 rhabdomyosarcoma [2]; 10 or 1 μg twice per wk, compared to untreated mice",did slow the growth of A673 tumors
same,Blocks VEGF-induced proliferation,ABAE cells,Yes
same,Tumor growth retardation,NCI-H358 NSCLC; 10 μg dose twice per wk,less marked
same,Final tumor volume,NCI-H358 NSCLC; [8],approximately 150 mm^3
same,Epitope on VEGF,VEGF,not cross-reactive
same,Tumor growth,HT1080 fibrosarcoma,arrested the growth of the tumors
same,Growth of established tumors,A673 rhabdomyosarcoma [3],significantly slowed the growth
same,Immunohistochemical Reactivity Tumor,[4],3+
same,Mean tumor volume after approximately 14 wk of treatment,"NCI-H358 NSCLC tumors; 100 μg i.p., prolonged treatment (FIG. 5A)",84 mm^3
same,"Mean tumor volume at the end of the study, % of initial mean tumor volume","NCI-H358 NSCLC tumors; 50–100 μg i.p. every 3–5 days, approximately 10 weeks of treatment",30%
same,Mean tumor weight,"NCI-H358 NSCLC tumors; end of the study (day 116), FIG. 5A",0.054 g
same,Decrease in mean tumor volume,NCI-H358 NSCLC tumors; start to approximately 14 wk of treatment (FIG. 5A),approximately 80%
same,Predominant Reactivity,VEGF and VEGF:Flk-1,VEGF
same,"VEGF bound to VEGFR2-coated wells, % of amount bound in absence of antibody",VEGFR2 (KDR/Flk-1),~19%
same,Blocking of VEGF-induced phosphorylation of VEGFR2,VEGFR2 in PAE/KDR cells,block VEGF-induced phosphorylation of VEGFR2
2C3-GUS,Localization after i.v. injection,[5]; immunohistochemistry on frozen sections of tumors,specifically localized to tumor vasculature and surrounding tumor stroma
same,Time of maximal localization after injection,"[5]; mouse, in vivo",24 to 48 h
same,Staining of normal tissues,"[5]; mouse, in vivo, iv",unstained
same,t½ α,[6],about 6 hours
same,t½ β,[6],about 25 hours
"NC(=O)c1nnn(Cc2cc(Cl)c(C(=O)c3ccc(Cl)cc3)c(Cl)c2)c1N [CAI, carboxyamidotriazole]",Cancer patients with disease stabilization,[7],49%
2C3 F(ab′)2: F(ab′)2 of 2C3,Blocking of VEGF binding to VEGFR2/Fc in solution,VEGFR2 (KDR/Fc),blocked the binding of VEGF to VEGFR2/Fc
